One may read the IC50 as the concentration at which inhibition is half-maximal.

The assay addresses T1, Human complement C1s enzyme (Homo sapiens, UniProt P09871).
T1 sequence (P09871 438-688 limits assumed): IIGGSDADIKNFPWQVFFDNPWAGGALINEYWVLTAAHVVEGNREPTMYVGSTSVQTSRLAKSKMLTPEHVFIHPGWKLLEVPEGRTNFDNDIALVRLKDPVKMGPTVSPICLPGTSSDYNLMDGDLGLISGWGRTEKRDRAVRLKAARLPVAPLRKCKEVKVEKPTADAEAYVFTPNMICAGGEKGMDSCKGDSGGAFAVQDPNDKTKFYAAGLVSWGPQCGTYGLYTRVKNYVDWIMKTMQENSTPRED
T1 sequence (P09871 16-437 partner limits assumed): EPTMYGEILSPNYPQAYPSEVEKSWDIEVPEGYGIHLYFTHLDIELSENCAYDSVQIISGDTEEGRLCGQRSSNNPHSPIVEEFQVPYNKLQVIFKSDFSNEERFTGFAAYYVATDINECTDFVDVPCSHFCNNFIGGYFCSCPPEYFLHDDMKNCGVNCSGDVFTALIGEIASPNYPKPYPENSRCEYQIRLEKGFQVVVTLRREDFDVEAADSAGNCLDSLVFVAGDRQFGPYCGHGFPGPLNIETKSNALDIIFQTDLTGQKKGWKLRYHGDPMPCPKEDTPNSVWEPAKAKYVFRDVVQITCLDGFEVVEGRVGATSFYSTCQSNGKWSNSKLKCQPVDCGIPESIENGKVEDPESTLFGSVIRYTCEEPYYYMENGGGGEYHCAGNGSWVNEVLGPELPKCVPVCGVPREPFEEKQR
Nature of the assay: Human C1s enzyme assay. The assay is classed as biochemical. Particulars: human complement C1s enzyme 1.16 nM, substrate Z-L-Lys-SBzl 100 μM, 5 min preincubation; read-out: IC50 (Stars), C1s Inhibiting Activity. The gist of the method:
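Serum-purified human C1s (1.16 nM final) preincubated 5 min at room temperature with compound in 50 mM Tris, 1 M NaCl, pH 7.5. Z-L-Lys-SBzl and DTNB added at 100 μM each; A405 followed every 30 s for 30 min, and IC50 obtained by nonlinear regression of reaction rates.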
Turning to `C[C@@H](NC(=O)[C@@H]1C[C@]2(C)C[C@@H]2N1C(=O)CNC(=O)c1ccc2c(c1)-c1ccccc1C2(F)F)c1cc2cnccc2[nH]1` [Compound 76, (1S,3S,5S)-N-((R)-1-(1H-pyrrolo[3,2-c]pyridin-2-yl)ethyl)-2-((9,9-difluoro-9H-fluorene-3-carbonyl)glycyl)-5-methyl-2-azabicyclo[3.1.0]hexane-3-carboxamide], the IC50 is over 1000 nM.
`O=C(NCC(=O)N1C[C@H](OC(F)F)C[C@H]1C(=O)NCc1cc2c(s1)CCNC2)c1ccc2c(c1)Oc1ccccc1S2` [Compound 313, (2S,4R)-4-(difluoromethoxy)-1-((phenoxathiine-3-carbonyl)glycyl)-N-((4,5,6,7-tetrahydrothieno[3,2-c]pyridin-2-yl)methyl)pyrrolidine-2-carboxamide]: the IC50 was under 100 nM.
Under `O=C(NCC(=O)N1C[C@H](OC(F)F)C[C@H]1C(=O)NCc1cc2cnccc2[nH]1)c1ccc2oc3cccc(F)c3c2c1` [Compound 369, (2S,4R)-N-((1H-pyrrolo[3,2-c]pyridin-2-yl)methyl)-4-(difluoromethoxy)-1-((9-fluorodibenzo[b,d]furan-2-carbonyl)glycyl)pyrrolidine-2-carboxamide] stands under 100 nM; under `O=C(NCC(=O)N1C[C@H](OC(F)F)C[C@H]1C(=O)NCc1ccc2scnc2c1)c1ccc2c(c1)Oc1ccccc1S2` [Compound 222, (2S,4R)-N-(benzo[d]thiazol-5-ylmethyl)-4-(difluoromethoxy)-1-((phenoxathiine-3-carbonyl)glycyl)pyrrolidine-2-carboxamide], over 1000 nM.
Under `C[C@@]12C[C@@H]1N(C(=O)CNC(=O)CCCOc1ccccc1)[C@H](C(=O)N[C@H]1CCn3c(CN)ccc31)C2` [Compound 69, (1S,3S,5S)-N-((S)-5-(aminomethyl)-2,3-dihydro-1H-pyrrolizin-1-yl)-5-methyl-2-((4-phenoxybutanoyl)glycyl)-2-azabicyclo[3.1.0]hexane-3-carboxamide] stands over 1000 nM; under `O=C(NCC(=O)N1CC2(C[C@H]1C(=O)NCc1cc3cccnc3[nH]1)OCCO2)c1ccc2c(c1)-c1ccccc1C2(F)F` [Compound 10, (S)-N-((1H-pyrrolo[2,3-b]pyridin-2-yl)methyl)-7-((9,9-difluoro-9H-fluorene-3-carbonyl)glycyl)-1,4-dioxa-7-azaspiro[4.4]nonane-8-carboxamide], over 1000 nM.
With `Nc1nccc2ccc(CNC(=O)[C@@H]3CC4(CN3C(=O)CNC(=O)c3ccc5c(c3)Oc3ccccc3S5)OCCO4)cc12` [Compound 51, (S)-N-((1-aminoisoquinolin-7-yl)methyl)-7-((phenoxathiine-3-carbonyl)glycyl)-1,4-dioxa-7-azaspiro[4.4]nonane-8-carboxamide] the figure was over 1000 nM; with `O=C(NCC(=O)N1CC2(C[C@H]1C(=O)NCc1cc3cnncc3[nH]1)OCCO2)c1ccc2c(c1)Oc1ccccc1S2` [Compound 37, (S)-N-((1H-pyrrolo[2,3-d]pyridazin-2-yl)methyl)-7-((phenoxathiine-3-carbonyl)glycyl)-1,4-dioxa-7-azaspiro[4.4]nonane-8-carboxamide], under 100 nM; with `C[C@@H](NC(=O)[C@@H]1CC(COCCCCN)CN1C(=O)CNC(=O)c1ccc2c(c1)Oc1ccccc1S2)c1cc2cnccc2[nH]1` (stereo partly drawn) [Compound 288, (2S)-N-((R)-1-(1H-pyrrolo[3,2-c]pyridin-2-yl)ethyl)-4-((4-aminobutoxy)methyl)-1-((phenoxathiine-3-carbonyl)glycyl)pyrrolidine-2-carboxamide], under 100 nM.
Turning to `O=C(NCC(=O)N1C[C@H](OC(F)F)C[C@H]1C(=O)NCc1cc2cnccc2[nH]1)c1ccc2c(c1)OCCS2` [Compound 356, (2S,4R)-N-((1H-pyrrolo[3,2-c]pyridin-2-yl)methyl)-4-(difluoromethoxy)-1-((2,3-dihydrobenzo[b][1,4]oxathiine-7-carbonyl)glycyl)pyrrolidine-2-carboxamide], the IC50 is under 100 nM.
In the case of `O=C(NCC(=O)N1C[C@H](OC(F)F)C[C@H]1C(=O)NCc1cc2cnccc2[nH]1)c1ccc(Oc2ccccc2)cc1` [Compound 18, (2S,4R)-N-((1H-pyrrolo[3,2-c]pyridin-2-yl)methyl)-4-(difluoromethoxy)-1-((4-phenoxybenzoyl)glycyl) pyrrolidine-2-carboxamide], the IC50 was under 100 nM.
Under `O=C(NCC(=O)N1C[C@H](OC(F)F)C[C@H]1C(=O)NCc1ccc2ccncc2c1)c1ccc2c(c1)Oc1ccccc1S2` [Compound 249, (2S,4R)-4-(difluoromethoxy)-N-(isoquinolin-7-ylmethyl)-1-((phenoxathiine-3-carbonyl)glycyl)pyrrolidine-2-carboxamide] stands over 1000 nM.
With `C[C@@H](NC(=O)[C@@H]1C[C@]2(C)C[C@@H]2N1C(=O)CN1Cc2cc(-c3ccc(F)cc3F)ccc2C1=O)c1cc2cnccc2[nH]1` [Compound 113, (1S,3S,5S)-N-((R)-1-(1H-pyrrolo[3,2-c]pyridin-2-yl)ethyl)-2-(2-(5-(2,4-difluorophenyl)-1-oxoisoindolin-2-yl)acetyl)-5-methyl-2-azabicyclo[3.1.0]hexane-3-carboxamide] the figure was under 100 nM.
Under `C[C@@H](NC(=O)[C@@H]1CC2(CN1C(=O)CNC(=O)c1ccc3c(c1)Oc1ccccc1S3)OCCO2)c1cc2cnccc2[nH]1` [Compound 47, (S)-N-((R)-1-(1H-pyrrolo[3,2-c]pyridin-2-yl)ethyl)-7-((phenoxathiine-3-carbonyl)glycyl)-1,4-dioxa-7-azaspiro[4.4]nonane-8-carboxamide] stands under 100 nM.
`O=C(Cc1ccc(Cl)c(Cl)c1)NCC(=O)N1CC2(C[C@H]1C(=O)NCc1cc3cnccc3[nH]1)OCCO2` [Compound 280, (S)-N-((1H-pyrrolo[3,2-c]pyridin-2-yl)methyl)-7-((2-(3,4-dichlorophenyl)acetyl)glycyl)-1,4-dioxa-7-azaspiro[4.4]nonane-8-carboxamide]: the IC50 was in the range of 100 to 1000 nM.
`O=C(NCC(=O)N1CC[C@H](c2ccccc2)[C@H]1C(=O)NCc1cc2cnccc2[nH]1)c1ccc2c(c1)Oc1ccccc1S2` [Compound 214, (2S,3R)-N-((1H-pyrrolo[3,2-c]pyridin-2-yl)methyl)-1-((phenoxathiine-3-carbonyl)glycyl)-3-phenylpyrrolidine-2-carboxamide]: the IC50 is over 1000 nM.
With `C[C@@]12C[C@@H]1N(C(=O)CNC(=O)CCCOc1ccccc1)[C@H](C(=O)NCc1ccc3c(c1)CNC3)C2` [Compound 67, (1S,3S,5S)-N-(isoindolin-5-ylmethyl)-5-methyl-2-((4-phenoxybutanoyl)glycyl)-2-azabicyclo[3.1.0]hexane-3-carboxamide] the figure was 100 to 1000 nM; with `C[C@@]12C[C@@H]1N(C(=O)CNC(=O)c1ccc3c(c1)Oc1ccccc1S3)[C@H](C(=O)NCc1cc3c(s1)CCNC3)C2` [Compound 170, (1S,3S,5S)-5-methyl-2-((phenoxathiine-3-carbonyl)glycyl)-N-((4,5,6,7-tetrahydrothieno[3,2-c]pyridin-2-yl)methyl)-2-azabicyclo[3.1.0]hexane-3-carboxamide], under 100 nM; with `O=C(NCC(=O)N1C[C@H](OC(F)F)C[C@H]1C(=O)NCc1cc2cnccc2[nH]1)c1ccc(-c2ccccn2)s1` [Compound 381, (2S,4R)-4-(difluoromethoxy)-1-[2-[[5-(2-pyridyl)thiophene-2-carbonyl]amino]acetyl]-N-(1H-pyrrolo[3,2-c]pyridin-2-ylmethyl)pyrrolidine-2-carboxamide], under 100 nM.

The values above are taken from patent US20260062443A1 (ALEXION PHARMACEUTICALS, INC., priority 2022, published 2026).
